Data on four compounds can be found in patent US4298727A, “3',4'-Dideoxykanamycin A and 1-N-(S)-α-hydroxy-ω-aminoalkanoyl) derivatives thereof” (Zaidan Hojin Biseibutsu Kagaku KenkyuKai, priority 1979, dated 1981).

The subject of one data set is Klebsiella HOU. Put plainly: MIC, standard serial dilution on nutrient agar. It is filed as cell-based.
For data set [1], the system named is resistant bacteria. The conditions noted are these: in words, background art; cited from earlier work.
In data set [2] the test system is Staphylococcus aureus APOI. Put plainly: MIC, standard serial dilution on nutrient agar. It is filed as cell-based.
The next data set has as its system Klebsiella THO. Put plainly: MIC, standard serial dilution on nutrient agar. It counts as cell-based. The following applies: Klebsiella, 18 h.
Another data set deals with Serratia 7. Put plainly: MIC, standard serial dilution on nutrient agar. It is filed as cell-based.
In data set [3] the test system is Escherichia coli K-12 ML 1629. Put plainly: MIC, standard serial dilution on nutrient agar. The following applies: K12ML1629, 37° C., 18 hours. It is filed as cell-based.
Another data set relates to Providencia 19. Put plainly: MIC, standard serial dilution on nutrient agar. It counts as cell-based.
In a further data set the test system is Proteus vulgaris BAC. Put plainly: MIC, standard serial dilution on nutrient agar. It counts as cell-based.
In another data set the test system is Enterobacter HAU. Put plainly: MIC, standard serial dilution on nutrient agar. It is filed as cell-based.
Another data set has as its system Erwinia 7-22. Put plainly: MIC, standard serial dilution on nutrient agar. It counts as cell-based. The following applies: 722, 37° C., 18 hours.
The next data set concerns Enterobacter 666. Put plainly: MIC, standard serial dilution on nutrient agar. It counts as cell-based. The following applies: 37° C., 18 hours.
The subject of a further data set is Escherichia coli K-12. Put plainly: MIC, standard serial dilution on nutrient agar. It counts as cell-based. The conditions noted are these: K12, 37° C., 18 hours.
For data set [4], the system named is Pseudomonas aeruginosa A3. Put plainly: MIC, standard serial dilution on nutrient agar. It counts as cell-based.
For a further data set, the system named is Providencia Pv 37. Put plainly: MIC, standard serial dilution on nutrient agar. The conditions noted are these: PV37, 37° C., 18 hours. It counts as cell-based.
For data set [5], the system named is Staphylococcus epidermides 109. Put plainly: MIC, standard serial dilution on nutrient agar. It is filed as cell-based. The following applies: Staphylococcus, 109, 18 h.
For the next data set, the system named is Serratia BOT. Put plainly: MIC, standard serial dilution on nutrient agar. It counts as cell-based. The conditions noted are these: Serratia, 18 h.
The test system of data set [6] is Staphylococcus aureus 209P. Put plainly: MIC, standard serial dilution on nutrient agar. It counts as cell-based.
Data set [7] is described as follows: acute toxicity, intravenous injection in mice. It counts as in vivo. The conditions noted are these: mouse, in vivo. The source says: (§1) Therefore, the new compounds of this invention are useful in therapeutic treatment of infections by various gram-negative and gram-positive bacteria, including the resistant bacterial strains. […] Accordingly, the low toxicity of the above new compounds of general formula (I) according to this invention is note-worthy, and the low toxicity of the new compounds of this invention with retaining the antibacterial activity substantially as high as that of the above-described known drugs will facilitate the clinical use of the new compounds, fulfilling the modern demand for providing efficient and less toxic drugs.

The next data set relates to Sarcina lutea PCI 1001. Put plainly: MIC, standard serial dilution on nutrient agar. It counts as cell-based. The following applies: Micrococcus luteus.
A further data set has as its system Proteus rettgeri AUB. Put plainly: MIC, standard serial dilution on nutrient agar. It counts as cell-based. The following applies: Providencia rettgeri.
Data set [8] deals with Klebsiella pneumoniae 22 #3038. Put plainly: MIC, standard serial dilution on nutrient agar. It counts as cell-based.
In a further data set the test system is Klebsiella BRIA. Put plainly: MIC, standard serial dilution on nutrient agar. It is filed as cell-based. The following applies: Klebsiella, 18 h.
The test system of the next data set is Providencia ZAO. Put plainly: MIC, standard serial dilution on nutrient agar. It is filed as cell-based.
The subject of the next data set is Pyocyanique. Put plainly: MIC, standard serial dilution on nutrient agar. It is filed as cell-based.
The subject of the next data set is Serratia CAT. Put plainly: MIC, standard serial dilution on nutrient agar. It is filed as cell-based.
Data set [9] relates to resistant bacteria. The following applies: in words, from Table 1. As for the experimental part: The minimum inhibitory concentrations (mcg/ml) of the new compounds of this invention against various microorganisms were determined according to a standard serial dilution method using nutrient agar incubation medium at 37° C., the estimation being made after 18 hours incubation. For comparison purpose, the MIC. of kanamycin A, amikacin and dibekacin was also determined under the same test conditions.

The subject of data set [10] is Staphylococcus aureus MS 9610. Put plainly: MIC, standard serial dilution on nutrient agar. It counts as cell-based. The following applies: Staphylococcus aureus, MS9610, 18 h.
The subject of data set [11] is Staphylococcus aureus MS 9883. Put plainly: MIC, standard serial dilution on nutrient agar. It is filed as cell-based.
The test system of the next data set is mice. Put plainly: acute toxicity, intravenous injection in mice. It counts as in vivo.
Excerpt: as §1

Setting [12] is: Pseudomonas aeruginosa, A3, 18 h.
The mark [13] stands for this setting: Staphylococcus aureus, 209P, 18 h.
[14] abbreviates: Enterobacter HAU, nutrient agar, 37° C., 18 hours, read-out: MIC.

Values after ≈ are worked out from the molar mass of the structure shown. Like-named read-outs stand apart in the source and are kept apart here.

The term MIC denotes the lowest concentration that inhibits growth of the organism. As a reminder, the LD50 is the dose at which mortality reaches 50%. Lower therefore signals a more toxic substance.

With `NC[C@@H]1CC[C@@H](N)[C@@H](O[C@H]2[C@H](O)[C@@H](O[C@H]3O[C@H](CO)[C@@H](O)[C@H](N)[C@H]3O)[C@H](N)C[C@@H]2N)O1` [Dibekacin, 3',4'-dideoxykanamycin B], the minimum inhibitory concentration (MIC) against Klebsiella HOU (Klebsiella, 18 h) was greater than 100 mg/L; in data set [2] (Staphylococcus aureus, 18 h) it was 0.78 mg/L (≈ 1.73 µM); in the data set on Klebsiella THO it was 1.56 mg/L (≈ 3.45 µM); in the data set with Serratia 7 (Serratia, 7, 18 h), greater than 100 mg/L; in data set [3], 1.56 mg/L (≈ 3.45 µM); against Providencia 19 (Providencia, 19, 18 h) it was greater than 100 mg/L. Moreover, the MIC was 12.5 mg/L (≈ 27.7 µM) in the data set with Proteus vulgaris BAC (Proteus vulgaris, 18 h); greater than 100 mg/L in the data set on Enterobacter HAU (Enterobacter, 18 h); greater than 100 mg/L with Erwinia 7-22; greater than 100 mg/L with Enterobacter 666; 1.56 mg/L (≈ 3.45 µM) against Escherichia coli K-12; 0.78 mg/L (≈ 1.73 µM) in data set [4] (setting [12]). In addition, the MIC against Providencia Pv 37 is greater than 100 mg/L; in data set [5], 0.78 mg/L (≈ 1.73 µM); against Serratia BOT, 25 mg/L (≈ 55.4 µM); in data set [6] (setting [13]), 0.78 mg/L (≈ 1.73 µM); against Sarcina lutea PCI 1001 (PCI1001, 18 h), 25 mg/L (≈ 55.4 µM); with Proteus rettgeri AUB (18 h), 100 mg/L (≈ 221 µM). Also, the minimum inhibitory concentration (MIC) in data set [8] (Klebsiella pneumoniae, 18 h) is greater than 100 mg/L; in the data set on Klebsiella BRIA it was greater than 100 mg/L; with Providencia ZAO (Providencia, 18 h), greater than 100 mg/L; against Pyocyanique (18 h) it was 6.25 mg/L (≈ 13.8 µM); against Serratia CAT (Serratia, 18 h), 6.25 mg/L (≈ 13.8 µM). Also, in the data set with resistant bacteria [1], the “activity against resistant bacteria” value is listed as “remarkably active against a wide variety of resistant bacteria”. The 50% lethal dose (LD50) in data set [7] lay in the range of 80 to 120 mg/kg.
Regarding `NCC1CCC(O)C(OC2C(N)CC(N)C(OC3OC(CO)C(O)C(N)C3O)C2O)O1` (stereo not drawn) [Compound No. 1, 3',4'-dideoxykanamycin A], the MIC in the data set with Klebsiella HOU (Klebsiella, 18 h) is greater than 100 mg/L; in [2] (Staphylococcus aureus APOI, nutrient agar, 37° C., 18 hours, read-out: MIC.), 3.12 mg/L (≈ 6.89 µM); in the data set with Klebsiella THO it was 6.25 mg/L (≈ 13.8 µM); in [10] it was 6.25 mg/L (≈ 13.8 µM); in the data set on Serratia 7 (Serratia, 7, 18 h), greater than 100 mg/L; in data set [3], 6.25 mg/L (≈ 13.8 µM). For the same compound, the minimal inhibitory concentration (MIC) was 100 mg/L (≈ 221 µM) against Providencia 19 (Providencia, 19, 18 h); 3.12 mg/L (≈ 6.89 µM) with Proteus vulgaris BAC (Proteus vulgaris BAC, nutrient agar, 37° C., 18 hours, read-out: MIC.); 12.5 mg/L (≈ 27.6 µM) in the data set on Enterobacter HAU (setting [14]); greater than 100 mg/L in the data set on Erwinia 7-22; 6.25 mg/L (≈ 13.8 µM) in [11] (Staphylococcus aureus, MS9883, 18 h); 100 mg/L (≈ 221 µM) against Enterobacter 666. The MIC was 6.25 mg/L (≈ 13.8 µM) against Escherichia coli K-12; 6.25 mg/L (≈ 13.8 µM) in [4] (setting [12]); greater than 100 mg/L against Providencia Pv 37; 6.25 mg/L (≈ 13.8 µM) in data set [5]; 50 mg/L (≈ 110 µM) in the data set on Serratia BOT; 3.12 mg/L (≈ 6.89 µM) in data set [6] (Staphylococcus aureus 209P, nutrient agar, 37° C., 18 hours, read-out: MIC.). Besides, the MIC against Sarcina lutea PCI 1001 (PCI1001, 18 h) is 12.5 mg/L (≈ 27.6 µM); with Proteus rettgeri AUB (18 h), greater than 100 mg/L; in [8] (Klebsiella pneumoniae, 18 h), greater than 100 mg/L; against Klebsiella BRIA it was greater than 100 mg/L; with Providencia ZAO (Providencia ZAO, nutrient agar, 37° C., 18 hours, read-out: MIC.), 12.5 mg/L (≈ 27.6 µM); in the data set with Pyocyanique (18 h), greater than 100 mg/L. Besides, in the data set with Serratia CAT (Serratia CAT, nutrient agar, 37° C., 18 hours, read-out: MIC.), the MIC was 12.5 mg/L (≈ 27.6 µM). Also, the “antibacterial activity against various resistant bacteria” value with resistant bacteria [9] is “remarkably higher antibacterial activity against various resistant bacteria than the parent kanamycin A”.
Regarding gentamicin, the “LD50 value (acute toxicity)” value in the data set with mice was 80 to 120 mg/kg.
Take `NCCC(O)C(=O)NC1CC(N)C(OC2OC(CN)CCC2O)C(O)C1OC1OC(CO)C(O)C(N)C1O` [Compound No. 2, 1-N-((S)-2-hydroxy-4-aminobutyryl)-3',4'-dideoxykanamycin A]: the MIC with Klebsiella HOU (Klebsiella HOU, nutrient agar, 37° C., 18 hours, read-out: MIC.) was 3.12 mg/L (≈ 5.64 µM); in data set [2] (Staphylococcus aureus, 18 h), 0.78 mg/L (≈ 1.41 µM); against Klebsiella THO, 1.56 mg/L (≈ 2.82 µM); in [10], 1.56 mg/L (≈ 2.82 µM); in the data set on Serratia 7 (Serratia 7, nutrient agar, 37° C., 18 hours, read-out: MIC.), 3.12 mg/L (≈ 5.64 µM); in data set [3] it was 1.56 mg/L (≈ 2.82 µM). Further, the MIC with Providencia 19 (Providencia 19, nutrient agar, 37° C., 18 hours, read-out: MIC.) came out at 3.12 mg/L (≈ 5.64 µM); in the data set on Proteus vulgaris BAC (Proteus vulgaris, 18 h) it was 1.56 mg/L (≈ 2.82 µM); with Enterobacter HAU (setting [14]), 12.5 mg/L (≈ 22.6 µM); with Erwinia 7-22, 0.78 mg/L (≈ 1.41 µM); in data set [11] (MS9883, Staphylococcus aureus MS 9883, nutrient agar, 37° C., 18 hours, read-out: MIC.) it was 3.12 mg/L (≈ 5.64 µM); with Enterobacter 666, 0.78 mg/L (≈ 1.41 µM). Moreover, the minimal inhibitory concentration (MIC) came out at 1.56 mg/L (≈ 2.82 µM) in the data set with Escherichia coli K-12; 3.12 mg/L (≈ 5.64 µM) in [4] (Pseudomonas aeruginosa A3, nutrient agar, 37° C., 18 hours, read-out: MIC.); 6.25 mg/L (≈ 11.3 µM) against Providencia Pv 37; 0.78 mg/L (≈ 1.41 µM) in data set [5]; 6.25 mg/L (≈ 11.3 µM) against Serratia BOT; 1.56 mg/L (≈ 2.82 µM) in [6] (setting [13]). Further, the MIC in the data set with Sarcina lutea PCI 1001 (PCI1001, Sarcina lutea PCI 1001, nutrient agar, 37° C., 18 hours, read-out: MIC.) was 3.12 mg/L (≈ 5.64 µM); in the data set on Proteus rettgeri AUB (Proteus rettgeri AUB, nutrient agar, 37° C., 18 hours, read-out: MIC.) it was 3.12 mg/L (≈ 5.64 µM); in data set [8] (Klebsiella pneumoniae 22 #3038, nutrient agar, 37° C., 18 hours, read-out: MIC.), 3.12 mg/L (≈ 5.64 µM); in the data set with Klebsiella BRIA, 1.56 mg/L (≈ 2.82 µM); in the data set on Providencia ZAO (Providencia, 18 h) it was 6.25 mg/L (≈ 11.3 µM); with Pyocyanique (Pyocyanique, nutrient agar, 37° C., 18 hours, read-out: MIC.) it was 12.5 mg/L (≈ 22.6 µM). This compound gave an MIC in the data set with Serratia CAT (Serratia, 18 h) of 6.25 mg/L (≈ 11.3 µM). Further, the “antibacterial activity against various resistant bacteria” value in the data set on resistant bacteria [9] is “higher antibacterial activity against the various resistant bacteria than amikacin”.
